In patent US11427596B2, “Metal-free solvent-free synthesis of fused-pyrido heterocycles and biomedical applications” (Indian Institute of Technology Indore, priority 2019, dated 2022):
pIC50: −log10 of the molar value. “And” between values parts separate entries of the source, which are not always exact repeats. Identical values can stand only once.

Columns and labels:
MCF-7 = test: Crystal violet cytotoxicity assay, MCF-7; format: cell-based; details: Homo sapiens, MCF7, 48 h incubation, triplicate
Procedure: (§1) FIG. 16 illustrates dose vs response curves of carbolines 18ac, 18bc, 18da and 18fa in HeLa, MCF-7, HEK293, A431 and A549 cell lines for 48 h incubation. IC50 values were determined by standard crystal violet assay in triplicate, according to the embodiments as disclosed herein. In vitro studies: The cytotoxicity of novel carboline derivatives 18ac, 18bc, 18da and 18fa were tested through standard crystal violet assay on human malignant cell lines such as HeLa, MCF-7, HEK293, A431 and A549. Cells were plated in a 96 well plate (1800 cells per well) and incubated for 48 h at 37° C. under 5% CO2. At 50% confluency, cells were incubated with a series of concentrations (0.1 μM, 0.25 μM, 0.5 μM, 1 μM, 2.5 μM, 5 μM, 10 μM, 25 μM, 50 μM and 100 μM) of the carbolines 18ac, 18bc, 18da and 18fa, respectively, for 48 h.
(§2) Procedure for cytotoxicity assay of carbolines in cancer cell lines: For this purpose, carbolines 18ac, 18bc, 18da and 18fa were subjected to a standard cell viability study (Crystal Violet assay) for examining anticancer activity against various human cancer cell lines such as HeLa, MCF-7, HEK293, A431 and A549. Crystal Violet is a triarylmethane dye which stains adhered cells by binding to the […]. The amount of Crystal Violet stain in the assay is directly proportional to the live cell biomass adhered on the plate after repeated washing. The above human cancer cell lines were plated in a 96-well tissue culture plate (1800 cells/well,) and incubated for 48 h in RPMI 1640 medium (volume≥100 μL/well), supplemented with 10% heat inactivated fetal bovine serum (HIFBS) and 1% Penicillin-Streptomycin antibiotic at 37° C., 5% CO2. Once the monolayer achieved 50% confluency/well, spent medium was aspirated and replaced with fresh medium≥100 μL/well, supplemented with increasing concentrations of carbolines 18ac, 18bc, 18da and 18fa (0.1 μM, 0.25 μM, 0.5 μM, 1 μM, 2.5 μM, 5 μM, 10 μM, 25 μM, 50 μM and 100 μM), respectively, and incubated for 48 h, at 37° C., 5% CO2. For positive control, 40% DMSO in culture medium was added to three wells and incubated under identical conditions. […] Finally, optical density of each well was measured at 570 nm (OD570) using Synergy H1 multimode plate reader (BioTek Instruments, Inc., Winooski, Vt., USA). The average background OD570 of empty wells was measured and subtracted from OD570/well on the plate. The percentage of treated, viable cells (attached) was determined and a dose vs response curve was plotted as semi-log[conc] vs percentage of normalized cell viability using GraphPad Prism v. […] The half maximal inhibitory concentration (IC50) was calculated and shown in Table 3 for carbolines 18ac, 18bc, 18da and 18fa against various human cancer cell lines (FIG. 16).

A549 = test: Crystal violet cytotoxicity assay, A549; format: cell-based; details: Homo sapiens, 48 h incubation, triplicate
Procedure: as §1, §2

HeLa cells = test: Live-cell confocal imaging of cell uptake; format: cell-based, human; details: 3 h incubation, confocal microscopy
Procedure: FIG. b 17 illustrates confocal microscopic studies (λex=405 nm; collection range=420-470 nm) for uptake of 18ac in HeLa cells, according to the embodiments as disclosed herein. • a) Confocal fluorescent image of HeLa cells after 3 h incubation with 10 μM concentration of 18ac (20× magnification, 2× zoom); • b) DIC image of HeLa cells • c) Overlay of (a) and (b) • d) Confocal image of HeLa cells after 3 h incubation with 100 nM concentration of 18ac (20× magnification, 2× zoom) • e) DIC image of HeLa cells • f) Overlay of (d) and (e).
To further evaluate cell uptake of the novel carbolines, live-cell imaging experiment was performed. HeLa cells were plated in a 4-well confocal dish (cell count=10^4 cells per well) and incubated for 48 h at 37° C. under 5% CO2. After 3 h of incubation with 18ac (10 nM, 100 nM, 1 μM, 10 μM, and 100 μM), cellular uptake and distribution were monitored by using confocal microscopy (λex=405 nm; collection range=420-470 nm).

HeLa = test: Crystal violet cytotoxicity assay, HeLa; format: cell-based; details: Homo sapiens, 48 h incubation, triplicate
Procedure: as §1, §2

A431 = test: Crystal violet cytotoxicity assay, A431; format: cell-based; details: Homo sapiens, A-431, 48 h incubation, triplicate
Procedure: as §1, §2

HEK293 = test: Crystal violet cytotoxicity assay, HEK293; format: cell-based; details: Homo sapiens, 48 h incubation, triplicate
Procedure: as §1, §2

[1] = Stability in polar solvent (HRMS footnote); format: physicochemical; details: HRMS recording
Mycobacterium smegmatis = test: In vitro Mycobacterium strains killing assay, M. smegmatis; format: cell-based

COC(=O)c1cc2c(c(-c3cc4ccccc4n3C)n1)c1ccccc1n2C
melting point: 210 to 212 °C

CCOC(=O)c1cc2c(c(-c3cc4ccccc4n3C)n1)c1ccccc1n2C
melting point: 175 to 177 °C

COC(=O)c1cc2c(c(-c3cc4ccccc4n3Cc3ccccc3)n1)c1ccccc1n2Cc1ccccc1
melting point: 168 to 170 °C

COC(=O)c1cc2c(c(-c3cc4cc(OC)ccc4n3C)n1)c1cc(OC)ccc1n2C
melting point: 160 to 162 °C

COC(=O)c1cc2occc2c(-c2ccco2)n1
melting point: 95 to 97 °C

CC(C)(C)OC(=O)c1cc2occc2c(-c2ccco2)n1
melting point: 78 to 80 °C

COC(=O)c1cc2oc3ccccc3c2c(-c2cc3ccccc3o2)n1
melting point: 163 to 165 °C

CCOC(=O)c1cc2oc3ccccc3c2c(-c2cc3ccccc3o2)n1
melting point: 141 to 143 °C

CC(C)(C)OC(=O)c1cc2oc3ccccc3c2c(-c2cc3ccccc3o2)n1
melting point: 100 to 102 °C

COC(=O)c1cc2c(ccn2Cc2ccccc2)c(-c2cccn2Cc2ccccc2)n1
melting point: 134 to 136 °C

COC(=O)c1cc2c(ccn2S(=O)(=O)c2ccc(C)cc2)c(-c2cccn2S(=O)(=O)c2ccc(C)cc2)n1
melting point: 120 to 122 °C

COC(=O)c1cc2c(ccn2S(=O)(=O)c2ccccc2)c(-c2cccn2S(=O)(=O)c2ccccc2)n1
melting point: 104 to 106 °C

Cn1c(-c2nc(C(=O)OC(C)(C)C)cc3c2c2ccccc2n3C)cc2ccccc21 [18ac, Tert-butyl 5-methyl-1-(1-methyl-1H-indol-2-yl)-5H-pyrido[4,3-b]indole-3-carboxylate]
pIC50 (MCF-7): 5.25 | pIC50 (A549): 5.34 | cellular uptake (HeLa cells; 100 nM concentration): nominal uptake | cellular uptake (HeLa cells; 10 μM concentration): Decent cytosolic uptake | pIC50 (HeLa): 5.31 | pIC50 (A431): 5.31 | pIC50 (HEK293): 5.64 | melting point: 200 to 202 °C

CC(C)(C)OC(=O)c1cc2c(c(-c3cc4ccccc4n3Cc3ccccc3)n1)c1ccccc1n2Cc1ccccc1 [18bc, Tert-butyl 5-benzyl-1-(1-benzyl-1H-indol-2-yl)-5H-pyrido[4,3-b]indole-3-carboxylate]
pIC50 (MCF-7): 5.15 | pIC50 (A549): 5.26 | pIC50 (HeLa): 5.09 | pIC50 (A431): 5.04 | pIC50 (HEK293): 5.15 | melting point: 148 to 150 °C

COC(=O)c1cc2c(c(-c3cc4ccccc4n3Cc3ccc(OC)cc3)n1)c1ccccc1n2Cc1ccc(OC)cc1 [18da, Methyl 5-(4-methoxybenzyl)-1-(1-(4-methoxybenzyl)-1H-indol-2-yl)-5H-pyrido[4,3-b]indole-3-carboxylate]
pIC50 (MCF-7): 5.52 | pIC50 (A549): 5.29 | pIC50 (HeLa): 5.89 | pIC50 (A431): 5.35 | pIC50 (HEK293): 5.17 | melting point: 106 to 108 °C

COC(=O)C1=Cc2c(c3ccccc3n2S(=O)(=O)c2ccc(C)cc2)C(c2cc3ccccc3n2S(=O)(=O)c2ccc(C)cc2)N1 (stereo not shown) [18fa, Methyl 5-tosyl-1-(1-tosyl-1H-indol-2-yl)-2,5-dihydro-1H-pyrido[4,3-b]indole-3-carboxylate]
pIC50 (MCF-7): 5.43 | pIC50 (A549): 5.30 | pIC50 (HeLa): 5.97 | pIC50 (A431): 5.45 | pIC50 (HEK293): 5.30 | melting point: 205 to 207 °C

NC(=O)c1cc2c(ccn2Cc2ccccc2)c(-c2cccn2Cc2ccccc2)n1 [compound 11, 1-Benzyl-4-(1-benzyl-1H-pyrrol-2-yl)-1H-pyrrolo[3,2-c]pyridine-6-carboxamide]
stability in polar solvent [1]: unstable in polar solvent

Cc1ccc(-c2nc(COCc3cn(CCN4C(=O)C(=O)c5ccccc54)nn3)cc3oc(C)cc23)o1 [compound 26, 1-(2-(4-(((2-Methyl-4-(5-methylfuran-2-yl)furo[3,2-c]pyridin-6-yl)methoxy)methyl)-1H-1,2,3-triazol-1-yl)ethyl)indoline-2,3-dione]
concentration range in which active (antituberculosis activity) (Mycobacterium smegmatis): 70 to 100 µM and 50 to 100 µM
